Source: patent US20240415791A1, “Therapeutic methods and compositions for treating cancer using devimistat and a fatty acid oxidation inhibitor, a tyrosine kinase inhibitor, a glutaminase inhibitor, and/or a glycolysis inhibitor” (Cornerstone Pharmaceuticals, Inc., priority 2021, published 2024)

Columns and labels:
AsPC1 cells [1] = experiment: Glycogen content in AsPC1 cells; assay type: cell-based, human; settings: AsPC1, CBS2, 3 hours
Description: Glycogen was quantified using the Glycogen Assay Kit II (colorimetric) from AbCam (ab169558) according to manufacturer's instructions. Briefly, approximately 2×10^6 cells were washed with ice-cold PBS and collected via scraping in 300 μL ice-cold ddH2O. Cells were immediately sonicated on ice for 5× […] pulses with a probe sonicator (Misonix Inc, model XL2000), then heated to 80° C. for 10 min. Samples were stored O/N at −20° C., then thawed, centrifuged at 12,000×g for 10 min and the supernatants collected for glycogen hydrolysis and quantification according to manufacturer's instructions.
C. […] Cells were treated in CBS2 for 3 hours with 30 μM devimistat or mock treated (FIG. 2C, left), or treated for 3 hours with the indicated devimistat doses (FIG. 2C, right).
D. Effects of anti-metabolism agents on glycogen consumption in PANC1 and AsPC1 cells. […] Glycogen content was measured in cell lysates (see Methods, above) and the results are presented in the left and middle graphs in FIG. 3D (note the different vertical scales for PANC1 and AsPC1 plots).

AsPC1 cells [2] = experiment: Devimistat-induced cell death (ATP after recovery) in AsPC1 cells; assay type: cell-based, human; settings: exogenous nutrient-free conditions
Description: Cells were plated at 80% confluency in complete RPMI in black, clear bottom 96-well plates or 35-mm dishes for ATP, protein and glycogen analysis, or glass coverslips for fluorescence visualization. […] Prior to drug treatment, cells were incubated in a nutrient-free carbonate buffered salt solution (CBS2) for 3 hours. Drug treatments were then carried out in CBS2 with addition of nutrient sources and/or chemical agents as described in the Examples and Figures.
LOGIC: High throughput, plate reader assays for cell death essentially always ultimately depend on metabolic activity of cells to identify viability, directly or indirectly. Thus, strong inhibition of metabolic activity by anti-metabolism agents like those described herein can confound cell death analysis by such assays. […] The inventors thus used a recovery-based assay wherein cells are treated with anti-metabolic agents under conditions where mitochondrial metabolism is (or becomes) limiting on viability. After experimental treatment, drug and media are removed and cells are allowed to recover in serum-free RPMI. RPMI provides high levels of glucose in support of glycolytic ATP generation (independently of mitochondrial function), allowing viable cells to recover ATP levels that are ultimately measured in the plate assay to score cell viability.
Survival is assessed by conventional luminescence measurement of ATP levels after this recovery.
TECHNICAL DETAILS: Immediately after drug treatments, acute ATP levels of cells in black, clear bottom 96-well plates were measured using the CellTiter-Glo® Luminescent Cell Viability Assay (catalog #G775B) following Promega (Madison, WI) protocols. […] After this recovery period ATP levels were measured using the CellTiter-Glo® Luminescent Cell Viability Assay as described above.
Survival is assessed by conventional luminescence measurement of ATP levels after this recovery. See the Methods section above for a detailed description of this assay and its validation.

[3] = Oral bioavailability / plasma pharmacokinetics of devimistat formulations in mice; parameters: species or system BALB/c nude mice; settings: mouse, in vivo
Description: […]; 5 mL/kg; Ex. 7A); (2) 5 μL/g IP injection of the triethanolamine/dextrose aqueous solution of Example 7 (25 mg/kg; 5 mL/kg; 7A); (3) 5 μL/g oral administration of the Eudragit L100 SDD suspension of Example 7 (100 mg/kg; 5 mL/kg; 7B); (4) 5 μL/g oral administration of the HPMCAS-M SDD suspension of Example 7 (100 mg/kg; 5 mL/kg; 7C); (5) 5 μL/g oral administration of the 20 mg/mL devimistat suspension of Example 7 (100 mg/kg; 5 mL/kg; 7D); or (6) 10 μL/g oral administration of the 10 mg/mL SOLUTOL solution of Example 7 (100 mg/kg; 10 mL/kg; 7E). In each experiment, about 80 μL of blood was collected from one subgroup of 4 male and 4 female mice at 0.083, 1, 4, and 24 hours after dosing, and from the other subgroup of 4 male and 4 female mice at 0.5, 2, and 8 hours. Plasma from the collected blood samples was analyzed by LC-MS/MS for the presence of devimistat.

[4] = test system: human H460 NSCLC xenografts; experiment: Oral devimistat in H460 NSCLC xenografts; assay type: in vivo, mice; settings: oral 100 mg/kg on days 8, 15, 22, 29; vs 5% dextrose or untreated
Description: Human H460 NSCLC cells were obtained from American Type Cell Culture (ATCC) (catalog no. HTB-177, Manassas, VA). These cells tested negative for viral contamination using the Mouse Antibody Production (MAP) test, performed by Charles River Labs Molecular Division, upon the receipt of the tumor cells from ATCC. The tumor cells were maintained at 37° C. in a humidified 5% CO2 atmosphere in T225 tissue culture flasks containing 50 mL of Roswell Park Memorial Institute (RPMI)-1640 solution with 10% Fetal Bovine Serum (FBS) and 2 mM L-glutamine. Cells were split at a ratio of 1:10 every 2-3 days by trypsinization and resuspended in fresh medium in a new flask. Cells were harvested for experiments in the same way at 70-90% confluency.
CD1-Nu/Nu female mice, ˜4-6 weeks old were obtained from Charles River Laboratories. Mice were housed 5 to a cage in a micro-isolator room in the Department of Animal Laboratory Research of New York State University (SUNY) at Stony Brook. Light-dark cycles were 12 h each daily, with light from 7 a.m. to 7 p.m. […]
An acclimation period of 7 days was allowed between the arrival of the animal at the study site before tumor inoculation and experimentation. […] Tumor dimensions (length and width) were measured daily before, during and after treatment (using Vernier calipers) and the tumor volume was calculated using the prolate ellipsoid formula: (length×width^2)/2. […]

O=C(O)CCCCC(CCSCc1ccccc1)SCc1ccccc1 (stereo not shown) [devimistat, 6,8-bis(benzylsulfanyl)octanoic acid]
glycogen consumption (AsPC1 cells [1]): accelerated | sensitivity of AsPC1 line to devimistat monotherapy (AsPC1 cells [2]): resistant to devimistat monotherapy | oral bioavailability (in words) [3]: orally bioavailable | tumor growth in H460 NSCLC xenografts [4]: grew much more slowly
